Entries after “also recorded” stand apart in the source; their conditions may differ. Where no end group is shown, it is not given here.
Assays:
LNCaP xenograft tumors = assay: LNCaP mouse xenograft tumor study; format: in vivo; conditions: direct intratumoral injection; three animals per treatment; P<0.0005; Fig. S8
Method: […] When tumor sizes reached 200 mm^3, 50 µL of Peptide A-8R (40 mg Peptide A-8R/Kg of animal) or Vehicle (DMSO) was directly injected into the tumors every other day. Injections were stopped after 5 times and tumors were measured every 3 days. Mice were euthanized after 3 weeks and tumors were excised. All procedures were approved by the University of Toledo Division of Lab Animal Recourses (DLAR). Protein extracts were prepared by boiling the tumor tissue in 3× SDS buffer, and evaluated by SDS-PAGE gel.
Mouse xenograft tumors derived from LNCaP cells were treated with Vehicle or Peptide A-8R, after which they were allowed to grow for an additional three weeks without treatment. Data points represent average tumor size of three animals for each treatment plus standard deviations. Note that there is a statistical difference (P<0.0005) in average tumor size for each day of tumor measurement. Arrow represents day of last injection of Vehicle or Peptide A-8R. (TIF) Click here for additional data file.

AKT = assay: Western blot of AKT in xenograft tumors; format: in vivo; conditions: mouse xenograft tumors; Fig. S4B
Method: Western blotting was performed as described using primary antibodies against sGCα1 (Cayman Chemical), pan-Akt (Cell Signaling Technology), phospho-AKT (S473, T308) (Cell Signaling Technology), phospho-PDK1 (Cell Signaling Technology), phospho-GSK-3β (Cell Signaling Technology), PARP (Cell Signaling Technology), and β-Actin (Abcam).
2×10^6 C81 cells in 50 µL of growth medium was mixed with 50 µL Matrigel (BD Biosciences) and injected into both flanks of 4–6-week old SCID male mice. When tumor sizes reached 200 mm^3, 50 µL of Peptide A-8R (40 mg Peptide A-8R/Kg of animal) or Vehicle (DMSO) was directly injected into the tumors every other day. Injections were stopped after 5 times and tumors were measured every 3 days. Mice were euthanized after 3 weeks and tumors were excised. All procedures were approved by the University of Toledo Division of Lab Animal Recourses (DLAR). Protein extracts were prepared by boiling the tumor tissue in 3× SDS buffer, and evaluated by SDS-PAGE gel.
Supplementary file pone.0064189.s004.tif: Figure S4 Peptide A-mediated down-regulation of AKT is not involved in its cytotoxicity to prostate cancer cells. […] Cell number was measured after 0–6 days of incubation. […]

DNA damage in C81 cells = assay: Comet assay (DNA damage); format: cell-based; conditions: C81, 1 hr, Fig. 4C
Method: C81 cells were treated with Peptide A-8R for 1 hour, following a 2-hour pretreatment with 5 mM NAC or Vehicle, and trypsinized, and mixed with Comet LM-Agarose (CometAssay, […]) and transferred to slides. Electrophoresis and Sybr-Green staining was carried out according to manufacturer’s protocol.
Figure 4 Peptide A-8R kills prostate cancer cells by mediating ROS generation. (A) C81 cells were treated with Vehicle or different µMolar concentrations of Peptide A-8R and without or with 0–5 mM NAC and monitored for ROS generation after 0–30 min as measured by fluorescence intensity (FI). Bar graphs represent averages of three independent experiments plus standard deviations. Note that asterisks on bar graphs found with NAC are compared to equivalent data without NAC. (B) C81 cells were treated with Vehicle or different concentrations of Peptide A-8R, as shown, and 0–5 mM NAC, as shown, and monitored for cell number after 0–6 days of incubation as measured by MTT assay. Data points represent averages of three independent experiments plus standard deviations. Asterisks indicate statistical significance (P<0.04). (C) C81 cells were treated with Vehicle or different concentrations of Peptide A-8R, as shown, and with or without 5 mM NAC, as shown, and monitored DNA damage after 1 hr incubation as measured by Comet assay.

Substance: Ac-TFCKAFPFHIIRRRRRRRR [Peptide A-8R]
- anti-tumor activity, LNCaP xenograft (LNCaP xenograft tumors): able to stop tumor growth; also recorded: strong anti-tumor activity; also recorded: blocks the growth of LNCaP prostate tumors
- effect on AKT protein level in tumors (AKT): same negative effect on AKT protein levels; also recorded: significantly reduces AKT protein levels
- DNA damage (Comet) (DNA damage in C81 cells; 10 µM): induced weakly
- DNA damage (Comet) (DNA damage in C81 cells; 25 µM): much more strongly
- DNA damage (Comet) (DNA damage in C81 cells; 50 µM): does not elicit a Comet signal
